Experiment [1] concerns the target rHSP90. As to the kind of experiment: HSP90 binding assay (BIACORE SPR; inhibition of binding between rHSP90 and fixed herbimycin A). The settings on record: concentration inhibiting binding between rHSP90 (50 μg/mL) and fixed herbimycin A by 50%, BIACORE-X SPR; read-out: HSP90 inhibitory activity IC50. From the text: The HSP90 binding assay system is a system for detecting the change of mass as SPR signal caused by the binding between herbimycin A fixed on a sensor chip and rHSP90 by BIACORE-X, in which 17-(6-amino hexylamino)herbimycin A is fixed through a carboxyl group on the surface of the sensor chip (CM5, BIACORE) on which carboxymethyldextran has been introduced. The method was according to the protocol of BIACORE. In addition, 17-(6-aminohexylamino)herbimycin A was synthesizes as described below.
rHSP90 (Stressgen Biotechnologies Corp., Victoria, BC Canada) at 50 μg/mL was exposed for 10 seconds to the surface of the sensor chip on which herbimycin A was fixed and the SPR signal (numerical value of interaction) was detected.
After mixing rHSP90 protein (5×10^−7M (50 μg/mL)) with the triazole derivative of the present invention, the mixture was exposed for 10 seconds to the surface of the sensor chip on which herbimycin A was fixed, and the SPR signal was measured by BIACORE-X.
Next, using following formula (1), the inhibitory activity (binding inhibition rate (%)) of the compound of the present invention to the binding between rHSP90 and fixed herbimycin A was obtained.
binding inhibition rate(%)=((b−s)/b)×100 Formula (1)
wherein b is the SPR signal when the compound of the present invention is not added to the sample: s is the SPR signal when the compound of the present invention is added to the sample.

In experiment [2] the test system is Human breast cancer cells (MCF7). The experiment can be described thus: Antiproliferative activity on MCF7 cells (methylene blue method). Conditions: read-out: Antiproliferative activity IC50. The format is cell-based. The procedure: Human breast cancer cells (MCF7) were treated with samples of various concentrations of known HSP90 inhibitors (that is, geldanamycin, herbimycin, radicicol and PU3) and the compounds of the present invention for 72 hours to confirm the effect of the triazole derivatives of the present invention on the cell growth. The cell ratio after the drug treatment was evaluated by measuring 660 nm absorbance by a microplate reader (BioRad) after staining the cells with the methylene blue method.
Cells were distributed to wells of 96 well plates at 2000 cells per well and treated with drugs 24 hours later. Further, the medium was removed 72 hours later and the cells were fixed by adding 50 μl of methanol and standing at room temperature for 2 minutes. After removing methanol, 100 μl of a staining solution was added and stained for 30 minutes. After washing 3 times with 200 μl of distilled water, 3% HCl solution was added, and the 660 nm absorbance of methylene blue was measured by a microplate reader (BioRad).
Next, the antiproliferative activity rate (%) was obtained by the formula (2) below.
Antiproliferative activity rate(%)=((B−A)/B)×100 Formula (2)
wherein B is 660 nm absorbance of the sample when the compound of the present invention is not added, and A is 660 nm absorbance of the sample when the compound of the present invention is added.
From the concentration of the triazole derivative of the present invention and the antiproliferative activity rate, the concentration was obtained using the above formula, at which the cell growth was suppressed by 50% by comparing with the control, and termed an IC50 value.
The antiproliferative activity rate (%) was obtained for SH-b04, SH-b05 and SH-b06 described above by a similar manner to that of the triazole derivatives of the present invention.

Setting [3] is: Homo sapiens, MCF7, 72 h, MCF7 cells, 72 hours treatment, 660 nm absorbance after methylene blue staining.
The mark [4] stands for this setting: MCF7 cells, 72 hours treatment, 660 nm absorbance after methylene blue staining.

pIC50: −log10 of the molar value. Where a name gives a salt, the structure may show the parent alone. Read-outs that look alike come from different tables or passages of the source.

Take `CC(C)c1cc(-c2n[nH]c(=O)n2C(CO)CO)c(O)cc1O` [OH-a33, 5-(2,4-dihydroxy-5-isopropyl-phenyl)-4-(2-hydroxy-1-hydroxymethyl-ethyl)-2,4-dihydro-[1,2,4]triazol-3-one]: the pIC50 is 6.43 in experiment [1] and 5.48 in experiment [2] (setting [3]).

With `COCCn1c(-c2cc(C(C)C)c(O)cc2O)n[nH]c1=O` [OH-a32, 5-(2,4-dihydroxy-5-isopropyl-phenyl)-4-(2-methoxy-ethyl)-2,4-dihydro-[1,2,4]triazol-3-one], the pIC50 is 6.46 in experiment [1] and 6.41 in experiment [2] (setting [3]).

As for `COc1cccc(-n2c(-c3cc(C(C)C)c(O)cc3O)n[nH]c2=O)c1` [OH-a09, 5-(2,4-dihydroxy-5-isopropyl-phenyl)-4-(3-methoxy-phenyl)-2,4-dihydro-[1,2,4]triazol-3-one], the values for the pIC50 in experiment [1] and in experiment [2] (setting [3]) were 6.80 and 8.17, respectively.

In the case of `CC(C)c1cc(-c2n[nH]c(=S)n2C(C)C)c(O)cc1O` [SH-a21, 5-(2,4-dihydroxy-5-isopropyl-phenyl)-4-isopropyl-2,4-dihydro-[1,2,4]-triazol-3-thione], the pIC50 in experiment [1] was 6.66; in experiment [2] (setting [3]), 6.40.

Take `CC(C)c1cc(-c2n[nH]c(=S)n2-c2ccc(Br)cc2)c(O)cc1O` [SH-a03, 4-[4-(4-bromo-phenyl)-5-mercapto-4H-[1,2,4]triazol-3-yl]-6-isopropyl-benzene-1,3-diol]: the pIC50 in experiment [1] and in experiment [2] (setting [3]) was 6.82 each time.

`COc1ccc(-n2c(-c3cc(C(C)C)c(O)cc3O)nnc2[S+](C)[O-])cc1` (centres unmarked) [SFX-a08, 4-isopropyl-6-[5-methylsulfinyl-4-(4-methoxy-phenyl)-4H-[1,2,4]triazol-3-yl]-benzene-1,3-diol]: the results for the pIC50 in experiment [1] and in experiment [2] (setting [3]) were 6.92 and 6.44, respectively.

“4-bromo-6-{5-methylsulfanyl-4-[4-(morpholin-4-yl)-phenyl]-4H-[1,2,4]triazol-3-yl}-benzene-1,3-diol trifluoroacetate [SMe-d01-TF]”: the pIC50 in experiment [1] was 6.22; in experiment [2] (setting [4]) it was 5.26.

As for `CC(C)c1cc(-c2n[nH]c(=S)n2-c2cccnc2)c(O)cc1O` [SH-a16], the figures for the pIC50 in experiment [1] and in experiment [2] (setting [3]) were 6.85 and 6.62, respectively.

On to `CC#CCc1cc(-c2n[nH]c(=O)n2-c2ccc(CN3CCOCC3)cc2)c(O)cc1O` [OH-c02, 5-[5-(but-2-ynyl)-2,4-dihydroxy-phenyl]-4-[4-(morpholin-4-ylmethyl)-phenyl]-2,4-dihydro-[1,2,4]triazol-3-one], for which the pIC50 in experiment [1] was 6.66; in experiment [2] (setting [3]), 6.85.

Consider `CC(C)c1cc(-c2nnc(S(=O)(=O)CCCN3CCCCC3)n2C(C)C)c(O)cc1O` [SFN3-a21•TFA, 4-isopropyl-6-[4-isopropyl-5-(3-piperidine-1-yl-propane-1-sulfonyl)-4H-[1,2,4]triazol-3-yl]-benzene-1,3-diol], for which the pIC50 in experiment [1] is 5.85; in experiment [2] (setting [3]) it was 5.39.

Take `CC(C)c1cc(-c2n[nH]c(=S)n2-c2ccccc2)c(O)cc1O` [SH-a15]: the pIC50 in experiment [1] was 6.60; in experiment [2] (setting [3]) it was 7.40.

As for `Cc1ccccc1-n1c(S)nnc1-c1ccc(O)cc1O` [SH-b05, reference compound], the figures for the pIC50 in experiment [1] and in experiment [2] (setting [3]) were 6.70 and 5.05, respectively.

For `Oc1cc(O)c(-c2n[nH]c(=S)n2-c2ccc(N3CCOCC3)cc2)cc1Br` [SH-d01, 4-bromo-6-{5-mercapto-4-[4-(morpholin-4-yl)-phenyl]-4H-[1,2,4]triazol-3-yl}-benzene-1,3-diol], the pIC50 in experiment [2] (setting [3]) is 6.24.

Consider `CC(C)c1cc(-c2nnc(S(=O)(=O)CCCN(C)C)n2-c2ccc(O)cc2)c(O)cc1O` [SFN2-a11•TFA, 4-[5-(3-dimethylamino-propylsulfonyl)-4-(4-hydroxy-phenyl)-4H-[1,2,4]triazol-3-yl]-6-isopropyl-benzene-1,3-diol], for which the negative-log IC50 (pIC50) in experiment [1] was 6.37; in experiment [2] (setting [3]), 7.01.

Consider `C[C@@H]1C[C@H]2O[C@@H]2/C=C\C=C\C(=O)Cc2c(Cl)c(O)cc(O)c2C(=O)O1` [radicicol, reference compound], for which the pIC50 in experiment [2] (setting [3]) was 7.72.

`CCCCn1c(Cc2cc(OC)c(OC)c(OC)c2)nc2c(N)ncnc21` [PU3, reference compound]: the pIC50 in experiment [2] (setting [4]) was 4.04.

As to `CC(C)c1cc(-c2nnc(S(C)(=O)=O)n2-c2ccc(C[N+]3([O-])CCOCC3)cc2)c(O)cc1O` [SFN-a07, 4-isopropyl-6-{5-methanesulfonyl-4-[4-(morpholin-4-oxid-4-ylmethyl)-phenyl]-4H-[1,2,4]triazol-3-yl}benzene-1,3-diol], the pIC50 in experiment [1] is 6.49; in experiment [2] (setting [3]) it was 4.62.

For the compound `C#CCc1cc(-c2n[nH]c(=O)n2-c2ccc(CN3CCOCC3)cc2)c(O)cc1O` [OH-e02, 5-[2,4-dihydroxy-5-(prop-2-ynyl)-phenyl]-4-[4-(morpholin-4-ylmethyl)-phenyl]-2,4-dihydro-[1,2,4]triazol-3-one], the pIC50 in experiment [1] is 6.82; in experiment [2] (setting [3]), 6.62.

On to `COc1ccc(-n2c(SC)nnc2-c2cc(C(C)C)c(O)cc2O)cc1` [SMe-a08, 4-isopropyl-6-[4-(4-methoxy-phenyl)-5-methylsulfanyl-4H-[1,2,4]triazol-3-yl]-benzene-1,3-diol], for which, in experiment [2] (setting [3]), the pIC50 is 5.51.

Consider `COc1ccc(-n2c(-c3cc(C(C)C)c(O)cc3O)nnc2S(=O)(=O)Cc2ccc[n+]([O-])c2)cc1` [SFN5-a08, 4-isopropyl-6-[4-(4-methoxy-phenyl)-5-(1-oxy-pyridin-3-ylmethanesulfonyl)-4H-[1,2,4]triazol-3-yl]-benzene-1,3-diol], for which the figures for the negative-log IC50 (pIC50) in experiment [1] and in experiment [2] (setting [3]) were 6.37 and 5.41, respectively.

Turning to `CC(C)c1cc(-c2n[nH]c(=S)n2-c2ccc(N3CCOCC3)cc2)c(O)cc1O` [SH-a01-TF, 4-isopropyl-6-{5-mercapto-4-[4-(morpholin-4-yl)-phenyl]-4H-[1,2,4]triazol-3-yl}-benzene-1,3-diol], the results for the pIC50 in experiment [1] and in experiment [2] (setting [3]) were 6.72 and 7.70, respectively.

With `COCCn1c(-c2cc(C(C)C)c(O)cc2O)n[nH]c1=S` [SH-a32, 5-(2,4-dihydroxy-5-isopropyl-phenyl)-4-(2-methoxy-ethyl)-2,4-dihydro-[1,2,4]triazol-3-thione], the values for the pIC50 in experiment [1] and in experiment [2] (setting [3]) were 6.62 and 6.26, respectively.

As for `CO[C@H]1[C@@H](OC)C[C@H](C)[C@@H](OC)C2=CC(=O)C=C(NC(=O)/C(C)=C/C=C\[C@H](OC)[C@@H](OC(N)=O)/C(C)=C/[C@@H]1C)C2=O` [herbimycin, reference compound], the pIC50 in experiment [2] (Homo sapiens, MCF7, 72 h) was 6.80.

As for `COc1ccc(-n2c(-c3cc(C(C)C)c(O)cc3O)n[nH]c2=O)cc1OC` [OH-a10, 5-(2,4-dihydroxy-5-isopropyl-phenyl)-4-(3,4-dimethoxy-phenyl)-2,4-dihydro-[1,2,4]triazol-3-one], in experiment [2] (setting [3]), the pIC50 was 7.85.

On to `COC1=C2C[C@@H](C)C[C@H](OC)[C@H](O)[C@@H](C)/C=C(\C)[C@H](OC(N)=O)[C@@H](OC)/C=C\C=C(/C)C(=O)NC(=CC1=O)C2=O` [geldanamycin, reference compound], for which the pIC50 in experiment [2] (setting [3]) was 7.92.

On to `CC(C)c1cc(-c2nnc(S(C)(=O)=O)n2CCN2CCOCC2)c(O)cc1O` [SFN-a26, 4-isopropyl-6-[5-methanesulfonyl-4-(2-molpholin-4-ylethyl)-4H-[1,2,4]triazol-3-yl]-benzene-1,3-diol], for which, in experiment [2] (setting [3]), the negative-log IC50 (pIC50) is < 4.70.

What is called pIC50 is the IC50 on a negative log10 scale, so that one unit is a factor of ten.

Source of the values: patent publication US20130116251A1, “Novel HSP90 Inhibitor” (Nippon Kayaku Kabushiki Kaisha, priority 2005, published 2013).
